Laboratory results: EP4722212A1, “NOVEL COMPOUND FOR INHIBITING PROTEIN KINASES AND PHARMACEUTICAL COMPOSITION COMPRISING SAME” (Magicbullettherapeutics Co., Ltd., priority 2023, dated 2024)
Like-named read-outs stand apart in the source and are kept apart here.

What was measured:
Assay in all cases: Kinase panel
Type in all cases: biochemical
[1] = target: CAMK1A (Homo sapiens, UniProt Q14012); settings: read-out: residual enzyme activity
Summary of the method: (§1)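 Kinase profiling used a full biochemical panel. Test compound concentration: 1 µM, single point. Output: calculated residual activity, with kinases at or under 40% reported.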

[2] = target: CDK1/CYCLIN B (Homo sapiens, UniProt P06493); settings: read-out: residual enzyme activity
Summary of the method: as §1

[3] = target: CDK2/CYCLIN E (Homo sapiens, UniProt P24941); settings: read-out: residual enzyme activity
Summary of the method: as §1

[4] = target: CDK3/CYCLIN E2 (Homo sapiens, UniProt Q00526); settings: CDK3/cyclin E2, 1 µM; read-out: residual enzyme activity
Summary of the method: as §1

[5] = target: CKIG3 (Homo sapiens, UniProt Q9Y6M4); settings: CKIG3, 1 µM; read-out: residual enzyme activity
Summary of the method: as §1

[6] = target: COT1/MAP3K8 (Homo sapiens, UniProt P41279); settings: COT1/MAP3K8, 1 µM; read-out: residual enzyme activity
Summary of the method: as §1

[7] = target: EPHAS (Homo sapiens, UniProt P29322); settings: read-out: residual enzyme activity
Summary of the method: as §1

[8] = target: ERN2/IRE2 (Homo sapiens, UniProt Q76MJ5); settings: ERN2/IRE2, 1 µM; read-out: residual enzyme activity
Summary of the method: as §1

[9] = target: FGR (Homo sapiens, UniProt P09769); settings: read-out: residual enzyme activity
Summary of the method: as §1

[10] = target: FMS (Homo sapiens, UniProt P07333); settings: read-out: residual enzyme activity
Summary of the method: as §1

[11] = target: GRK1 (Homo sapiens, UniProt Q15835); settings: GRK1, 1 µM; read-out: residual enzyme activity
Summary of the method: as §1

[12] = target: JAK1 (Homo sapiens, UniProt P23458); settings: JAK1, 1 µM; read-out: residual enzyme activity
Summary of the method: as §1

[13] = target: MAPKAPKS/PRAK (Homo sapiens, UniProt Q8IW41); settings: read-out: residual enzyme activity
Summary of the method: as §1

[14] = target: MEK3 (Homo sapiens, UniProt P46734); settings: MEK3, 1 µM; read-out: residual enzyme activity
Summary of the method: as §1

[15] = target: MKK6 (Homo sapiens, UniProt P52564); settings: MKK6, 1 µM; read-out: residual enzyme activity
Summary of the method: as §1

[16] = target: MSK2/RPS6KA4 (Homo sapiens, UniProt O75676); settings: MSK2/RPS6KA4, 1 µM; read-out: residual enzyme activity
Summary of the method: as §1

[17] = target: MYO3A (Homo sapiens, UniProt Q8NEV4); settings: read-out: residual enzyme activity
Summary of the method: as §1

[18] = target: OSR1/OXSR1 (Homo sapiens, UniProt O95747); settings: OSR1/OXSR1, 1 µM; read-out: residual enzyme activity
Summary of the method: as §1

[19] = target: P38D/MAPK13 (Homo sapiens, UniProt O15264); settings: read-out: residual enzyme activity
Summary of the method: as §1

[20] = target: PAK6 (Homo sapiens, UniProt Q9NQU5); settings: PAK6, 1 µM; read-out: residual enzyme activity
Summary of the method: as §1

[21] = target: PHKG2 (Homo sapiens, UniProt P15735); settings: PHKg2, 1 µM; read-out: residual enzyme activity
Summary of the method: as §1

[22] = target: PIM1 (Homo sapiens, UniProt P11309); settings: PIM1, 1 µM; read-out: residual enzyme activity
Summary of the method: as §1

[23] = target: PKCEPSILON (Homo sapiens, UniProt Q02156); settings: read-out: residual enzyme activity
Summary of the method: as §1

[24] = target: PKCG (Homo sapiens, UniProt P05129); settings: read-out: residual enzyme activity
Summary of the method: as §1

[25] = target: PKCZETA (Homo sapiens, UniProt Q05513); settings: read-out: residual enzyme activity
Summary of the method: as §1

[26] = target: PKD2/PRKD2 (Homo sapiens, UniProt Q9BZL6); settings: PKD2/PRKD2, 1 µM; read-out: residual enzyme activity
Summary of the method: as §1

[27] = target: PKG1B (Homo sapiens, UniProt Q13976); settings: read-out: residual enzyme activity
Summary of the method: as §1

[28] = target: ROS/ROS1 (Homo sapiens, UniProt P08922); settings: ROS/ROS1, 1 µM; read-out: residual enzyme activity
Summary of the method: as §1

[29] = target: SLK/STK2 (Homo sapiens, UniProt Q9H2G2); settings: SLK/STK2, 1 µM; read-out: residual enzyme activity
Summary of the method: as §1

[30] = target: STK16 (Homo sapiens, UniProt O75716); settings: STK16, 1 µM; read-out: residual enzyme activity
Summary of the method: as §1

[31] = target: STK21/CIT (Homo sapiens, UniProt O14578); settings: read-out: residual enzyme activity
Summary of the method: as §1

[32] = target: TESK1 (Homo sapiens, UniProt Q15569); settings: TESK1, 1 µM; read-out: residual enzyme activity
Summary of the method: as §1

[33] = target: YES/YES1 (Homo sapiens, UniProt P07947); settings: YES/YES1, 1 µM; read-out: residual enzyme activity
Summary of the method: as §1

MSK2/RPS6KA4, sequence (O75676 whole entry): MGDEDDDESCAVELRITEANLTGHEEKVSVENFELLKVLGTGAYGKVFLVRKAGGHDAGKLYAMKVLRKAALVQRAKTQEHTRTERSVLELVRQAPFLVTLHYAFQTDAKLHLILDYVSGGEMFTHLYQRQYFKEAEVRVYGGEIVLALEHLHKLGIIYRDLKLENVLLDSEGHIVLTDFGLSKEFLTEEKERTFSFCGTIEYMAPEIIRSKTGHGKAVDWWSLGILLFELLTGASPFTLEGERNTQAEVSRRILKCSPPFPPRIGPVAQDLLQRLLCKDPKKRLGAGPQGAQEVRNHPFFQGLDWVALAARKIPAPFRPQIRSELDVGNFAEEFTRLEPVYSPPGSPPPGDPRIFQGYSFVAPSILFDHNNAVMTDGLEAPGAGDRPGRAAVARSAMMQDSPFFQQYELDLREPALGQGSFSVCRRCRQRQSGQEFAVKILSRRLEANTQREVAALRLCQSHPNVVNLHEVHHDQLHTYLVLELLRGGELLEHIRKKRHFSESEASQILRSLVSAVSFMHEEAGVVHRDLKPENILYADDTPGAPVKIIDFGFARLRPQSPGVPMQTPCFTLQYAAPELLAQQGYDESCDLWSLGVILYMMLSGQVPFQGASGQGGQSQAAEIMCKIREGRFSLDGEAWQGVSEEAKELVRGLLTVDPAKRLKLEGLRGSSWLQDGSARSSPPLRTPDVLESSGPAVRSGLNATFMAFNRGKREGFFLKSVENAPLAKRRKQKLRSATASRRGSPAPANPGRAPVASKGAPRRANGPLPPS
PAK6, sequence (Q9NQU5 whole entry, species assumed): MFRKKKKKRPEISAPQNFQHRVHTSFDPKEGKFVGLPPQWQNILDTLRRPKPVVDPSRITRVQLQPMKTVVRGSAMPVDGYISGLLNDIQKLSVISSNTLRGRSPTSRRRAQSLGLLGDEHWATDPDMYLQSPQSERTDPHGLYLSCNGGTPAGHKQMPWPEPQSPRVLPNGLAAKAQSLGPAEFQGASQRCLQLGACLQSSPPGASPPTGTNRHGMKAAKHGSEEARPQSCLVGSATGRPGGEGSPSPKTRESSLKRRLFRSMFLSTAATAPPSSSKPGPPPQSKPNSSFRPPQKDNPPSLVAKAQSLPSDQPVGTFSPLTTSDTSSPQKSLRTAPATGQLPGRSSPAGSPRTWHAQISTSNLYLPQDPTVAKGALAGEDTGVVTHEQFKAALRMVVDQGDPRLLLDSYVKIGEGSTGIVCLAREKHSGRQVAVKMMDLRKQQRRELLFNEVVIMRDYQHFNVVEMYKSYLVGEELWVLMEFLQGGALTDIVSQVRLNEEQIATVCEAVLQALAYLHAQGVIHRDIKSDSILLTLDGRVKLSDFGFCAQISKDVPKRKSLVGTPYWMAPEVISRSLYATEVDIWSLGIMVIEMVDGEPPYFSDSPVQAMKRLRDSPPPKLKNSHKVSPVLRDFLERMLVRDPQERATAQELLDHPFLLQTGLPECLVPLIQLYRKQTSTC
PKG1B, sequence (Q13976 1-686 isoform Q13976-2): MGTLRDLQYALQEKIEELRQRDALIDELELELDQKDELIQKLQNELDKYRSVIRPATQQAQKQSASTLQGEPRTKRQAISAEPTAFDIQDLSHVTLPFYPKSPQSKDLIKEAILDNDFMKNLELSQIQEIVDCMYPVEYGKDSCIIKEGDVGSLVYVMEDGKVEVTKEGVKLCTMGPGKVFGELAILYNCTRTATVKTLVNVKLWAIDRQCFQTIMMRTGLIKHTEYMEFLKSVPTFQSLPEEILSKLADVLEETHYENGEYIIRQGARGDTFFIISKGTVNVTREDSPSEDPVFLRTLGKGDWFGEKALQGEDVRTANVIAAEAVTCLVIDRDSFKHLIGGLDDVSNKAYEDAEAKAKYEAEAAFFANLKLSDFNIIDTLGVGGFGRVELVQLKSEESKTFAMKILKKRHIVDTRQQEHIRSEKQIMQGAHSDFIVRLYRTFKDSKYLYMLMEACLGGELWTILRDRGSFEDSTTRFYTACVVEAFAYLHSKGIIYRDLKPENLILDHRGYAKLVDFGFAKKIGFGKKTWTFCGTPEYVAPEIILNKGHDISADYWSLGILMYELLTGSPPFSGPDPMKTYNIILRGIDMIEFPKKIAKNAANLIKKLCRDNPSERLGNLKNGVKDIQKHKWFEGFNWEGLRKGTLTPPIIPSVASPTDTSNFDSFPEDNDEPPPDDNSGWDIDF
CDK1/CYCLIN B, sequence (P06493 whole entry, species assumed): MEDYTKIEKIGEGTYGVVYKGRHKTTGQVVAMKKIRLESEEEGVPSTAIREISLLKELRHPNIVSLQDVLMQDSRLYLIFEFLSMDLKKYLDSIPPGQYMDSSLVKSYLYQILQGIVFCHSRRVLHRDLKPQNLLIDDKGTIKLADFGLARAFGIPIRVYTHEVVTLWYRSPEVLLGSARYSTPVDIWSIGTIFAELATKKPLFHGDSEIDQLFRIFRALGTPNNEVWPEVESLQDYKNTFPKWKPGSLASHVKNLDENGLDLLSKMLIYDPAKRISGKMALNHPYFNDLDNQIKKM
CDK1/CYCLIN B, sequence (P14635 whole entry partner, species assumed): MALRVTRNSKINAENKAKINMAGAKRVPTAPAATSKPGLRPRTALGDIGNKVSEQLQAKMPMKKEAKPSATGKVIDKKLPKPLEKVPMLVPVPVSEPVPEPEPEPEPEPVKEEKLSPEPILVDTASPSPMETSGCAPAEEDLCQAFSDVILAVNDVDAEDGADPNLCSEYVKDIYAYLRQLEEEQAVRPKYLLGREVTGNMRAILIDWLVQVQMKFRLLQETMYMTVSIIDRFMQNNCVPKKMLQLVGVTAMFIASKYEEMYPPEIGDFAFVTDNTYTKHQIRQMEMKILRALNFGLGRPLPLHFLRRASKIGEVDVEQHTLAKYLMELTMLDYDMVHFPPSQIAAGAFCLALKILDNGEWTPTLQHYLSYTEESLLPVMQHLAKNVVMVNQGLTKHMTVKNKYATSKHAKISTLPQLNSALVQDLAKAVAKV
PHKG2, sequence (P15735 whole entry, species assumed): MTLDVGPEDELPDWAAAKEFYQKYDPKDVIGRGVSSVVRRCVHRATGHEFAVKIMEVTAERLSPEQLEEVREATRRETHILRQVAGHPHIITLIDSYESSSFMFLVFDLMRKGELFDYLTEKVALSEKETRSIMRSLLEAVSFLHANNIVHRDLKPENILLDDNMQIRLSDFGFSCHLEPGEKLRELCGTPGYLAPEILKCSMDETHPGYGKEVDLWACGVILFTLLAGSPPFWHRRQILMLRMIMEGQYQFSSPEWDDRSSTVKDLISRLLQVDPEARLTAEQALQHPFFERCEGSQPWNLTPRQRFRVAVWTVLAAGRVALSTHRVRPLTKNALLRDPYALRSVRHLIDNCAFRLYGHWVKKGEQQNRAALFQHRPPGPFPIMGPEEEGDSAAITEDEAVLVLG
COT1/MAP3K8, sequence (P41279 whole entry): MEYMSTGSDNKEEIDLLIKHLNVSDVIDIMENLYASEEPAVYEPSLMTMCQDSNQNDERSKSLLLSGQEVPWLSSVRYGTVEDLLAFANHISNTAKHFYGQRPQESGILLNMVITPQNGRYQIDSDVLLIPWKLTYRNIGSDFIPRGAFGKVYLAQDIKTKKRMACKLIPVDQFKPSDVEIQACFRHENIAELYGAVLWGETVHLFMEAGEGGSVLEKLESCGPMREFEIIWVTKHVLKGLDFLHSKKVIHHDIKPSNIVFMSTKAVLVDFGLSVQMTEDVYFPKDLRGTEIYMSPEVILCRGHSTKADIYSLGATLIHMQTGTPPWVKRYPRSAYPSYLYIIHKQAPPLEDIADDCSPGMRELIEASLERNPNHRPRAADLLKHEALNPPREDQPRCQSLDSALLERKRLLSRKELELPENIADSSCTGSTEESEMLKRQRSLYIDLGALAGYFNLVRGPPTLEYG
OSR1/OXSR1, sequence (O95747 whole entry): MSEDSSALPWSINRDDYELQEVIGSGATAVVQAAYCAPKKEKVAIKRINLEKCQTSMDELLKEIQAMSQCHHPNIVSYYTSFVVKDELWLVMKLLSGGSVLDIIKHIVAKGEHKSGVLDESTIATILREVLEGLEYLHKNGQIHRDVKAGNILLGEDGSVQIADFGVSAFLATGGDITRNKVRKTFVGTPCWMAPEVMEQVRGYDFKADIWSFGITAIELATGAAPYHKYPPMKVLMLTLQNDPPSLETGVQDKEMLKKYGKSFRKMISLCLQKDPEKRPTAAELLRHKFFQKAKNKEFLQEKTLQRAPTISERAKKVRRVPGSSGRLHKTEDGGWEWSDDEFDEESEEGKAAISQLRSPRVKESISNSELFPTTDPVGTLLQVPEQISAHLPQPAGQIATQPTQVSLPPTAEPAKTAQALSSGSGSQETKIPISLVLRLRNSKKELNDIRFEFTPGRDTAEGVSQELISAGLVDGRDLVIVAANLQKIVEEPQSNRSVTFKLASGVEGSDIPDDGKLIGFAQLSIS
PKCEPSILON, sequence (Q02156 whole entry): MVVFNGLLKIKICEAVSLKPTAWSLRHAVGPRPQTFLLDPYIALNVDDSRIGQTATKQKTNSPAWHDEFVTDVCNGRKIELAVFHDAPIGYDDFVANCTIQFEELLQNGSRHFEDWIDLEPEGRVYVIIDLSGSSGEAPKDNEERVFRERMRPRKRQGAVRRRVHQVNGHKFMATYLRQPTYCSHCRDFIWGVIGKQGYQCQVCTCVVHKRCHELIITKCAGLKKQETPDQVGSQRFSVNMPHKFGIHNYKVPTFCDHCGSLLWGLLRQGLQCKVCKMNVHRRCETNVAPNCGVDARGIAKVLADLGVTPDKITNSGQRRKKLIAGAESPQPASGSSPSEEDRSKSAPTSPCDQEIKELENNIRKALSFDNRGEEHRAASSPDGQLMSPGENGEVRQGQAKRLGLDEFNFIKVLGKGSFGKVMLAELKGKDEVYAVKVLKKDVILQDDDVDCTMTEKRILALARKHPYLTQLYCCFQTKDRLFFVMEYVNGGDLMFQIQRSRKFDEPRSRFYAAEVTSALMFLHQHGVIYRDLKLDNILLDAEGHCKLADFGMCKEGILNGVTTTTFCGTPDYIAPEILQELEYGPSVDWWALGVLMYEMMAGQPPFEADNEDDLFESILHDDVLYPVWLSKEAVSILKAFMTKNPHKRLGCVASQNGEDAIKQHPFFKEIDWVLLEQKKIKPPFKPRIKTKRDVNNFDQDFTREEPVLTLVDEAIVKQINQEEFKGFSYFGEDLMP

Structure (SMILES)	remaining activity at 1 µM [2]	remaining activity at 1 µM [3]	remaining activity at 1 µM [4]	remaining activity at 1 µM [5]	remaining activity at 1 µM [6]	remaining activity at 1 µM [8]	remaining activity at 1 µM [9]	remaining activity at 1 µM [10]	remaining activity at 1 µM [11]	remaining activity at 1 µM [12]	remaining activity at 1 µM [13]	remaining activity at 1 µM [14]	remaining activity at 1 µM [15]	remaining activity at 1 µM [16]	remaining activity at 1 µM [17]	remaining activity at 1 µM [18]	remaining activity at 1 µM [20]	remaining activity at 1 µM [21]	remaining activity at 1 µM [22]	remaining activity at 1 µM [23]	other results
Cc1cn(-c2cc(C(=O)Nc3ccc(C)c(N4Cc5cnc(NC6CC6)nc5C5(CC5)C4=O)c3)cc(C(F)(F)F)c2)cn1 [Compound 8, N-(3-(2'-(cyclopropylamino)-7'-oxo-5'H-spiro[cyclopropane-1,8'-pyrido[4,3-d]pyrimidine]-6'(7'H)-yl)-4-methylphenyl)-3-(4-methyl-1H-imidazol-1-yl)-5-(trifluoromethyl)benzamide]	> 40%	> 40%	> 40%	> 40%	> 40%	> 40%	≤ 40%	≤ 40%	> 40%	≤ 40%	> 40%	> 40%	> 40%	> 40%	> 40%	> 40%	> 40%	> 40%	> 40%	> 40%	remaining activity at 1 µM ([1]; CAMK1A): > 40%; remaining activity at 1 µM ([7]; EPHAS (row 110), 1 µM): ≤ 40%; remaining activity at 1 µM ([19]; P38D/MAPK13, 1 µM): > 40%; remaining activity at 1 µM [24]: > 40%; remaining activity at 1 µM [25]: > 40%; remaining activity at 1 µM [26]: > 40%; remaining activity at 1 µM ([27]; PKG1B): > 40%; remaining activity at 1 µM [28]: ≤ 40%; remaining activity at 1 µM [29]: ≤ 40%; remaining activity at 1 µM [30]: > 40%; remaining activity at 1 µM [31]: > 40%; remaining activity at 1 µM [32]: ≤ 40%; remaining activity at 1 µM [33]: ≤ 40%
Cc1ccc(Nc2ncc3c(n2)C2(CC2)C(=O)N(c2cc(NC(=O)c4cccc(C(F)(F)F)c4)ccc2C)C3)cn1 [Compound 51, N-(4-methyl-3-(2'-((6-methylpyridin-3-yl)amino)-7'-oxo-5'H-spiro[cyclopropane-1,8'-pyrido[4,3-d]pyrimidine]-6'(7'H)-yl)phenyl)-3-(trifluoromethyl)benzamide]	> 40%	> 40%	> 40%	> 40%	> 40%	> 40%	≤ 40%	≤ 40%	> 40%	≤ 40%	> 40%	> 40%	> 40%	> 40%	> 40%	> 40%	> 40%	> 40%	> 40%	> 40%	remaining activity at 1 µM ([1]; CAMKla): > 40%; remaining activity at 1 µM ([7]; EPHA8, 1 µM): ≤ 40%; remaining activity at 1 µM ([19]; P38d/MAPK13, 1 µM): > 40%; remaining activity at 1 µM [24]: > 40%; remaining activity at 1 µM [25]: > 40%; remaining activity at 1 µM [26]: > 40%; remaining activity at 1 µM ([27]; PKG1b): > 40%; remaining activity at 1 µM [28]: ≤ 40%; remaining activity at 1 µM [29]: ≤ 40%; remaining activity at 1 µM [30]: > 40%; remaining activity at 1 µM [31]: > 40%; remaining activity at 1 µM [32]: ≤ 40%; remaining activity at 1 µM [33]: ≤ 40%
